Experimental data reported in US20050239873A1 (priority 1999, published 2005).
Where “and” joins values, the source holds several entries; their conditions need not be identical. Equal entries are not always repeated.

What was measured:
[1] = tested on: TABX2S cells (over-expressing Bcl-xL); experiment: cells; details: for difference in sensitivity of the two cell lines: TABX2S vs TABX1A
From the text: (§1) Briefly, a DNA fragment encoding the full-length mouse BCl-xL cDNA was isolated from the plasmid PBS.BCL-xL (Tzung et al., Am. J. Path. 150:1985-1995, 1997, incorporated herein by reference in its entirety) by digestion with the restriction endonuclease EcoRI. This EcoRI fragment was cloned into the EcoRI site of the mammalian expression vector pSFFV (Fuhlbrigge et al., Proc. Nat. Acad. Sci. USA 85:5649-5653, 1988) in both sense and antisense orientations, to form expression plasmids pSFFV.Bcl-xL(sense) or pSFFV.Bcl-xL(antisense), respectively. The tumorigenic murine hepatocyte cell line TAMH was transfected by lipofection (Lipofectamine, Life Technologies, Rockville, Md., according to the manufacturer's recommendations) with the plasmids pSFFV.neo (the control), pSFFV.Bcl-xL(sense) or pSFFV.Bcl-xL(antisense). […] Transfectants were selected for the acquisition of neomycin resistance by growing cells in the presence of 750 μg/ml of G418. Bulk transfectants were cloned by limiting dilution and individual clones were screened by immunoblot analysis to determine the level of BCl-xL protein expression as described below.
(§2) Selected transfectants were then tested for whole cell sensitivity to several apoptotic agents. Transfected cells were cultured to reach approximately 80% confluency prior to plating an equal number of cells from selected clones on 12-well tissue culture plates. The transplanted cells were treated with the following apoptotic agents: 5 μM doxorubicin for 48 hours; 5 μM cisplatin for 48 hours; or with 200 U/ml tumor necrosis factor (TNF) plus 1 μg/ml actinomycin D for 18 hours. Cell viability was determined by trypan blue dye exclusion. The percentage of viable cells was calculated by the number of viable cells (treated with a particular apoptogenic agent) divided by the number in the control group (untreated).
TABX2S cells and TABX1A cells were also examined for the effects of various mitochondrial inhibitors. […] Azide was diluted from an aqueous stock solution. […] Controls received an equivalent concentration of diluent. At various time points after drug treatment, cells were trypsinized, and cell viability was determined by trypan blue dye exclusion. The number of viable cells were counted and normalized to control group (i.e., % control=number of viable cells (treated group)/number of viable cells (control group)×100).

[2] = tested on: TABX1A cells (under-expressing Bcl-xL); experiment: Cell viability by trypan blue dye exclusion; details: Mus musculus, 48 h, read-out: cells remained viable
From the text: as §1
as §2, with “The transplanted cells were treated with the following apoptotic agents: 5 μM doxorubicin for 48 hours; 5 μM cisplatin for 48 hours; or with 200 U/ml tumor necrosis factor (TNF) plus 1 μg/ml actinomycin D for 18 hours.” left out
(§3) TABX2S cells and TABX1A cells were also examined for the effects of various mitochondrial inhibitors. […] At various time points after drug treatment, cells were trypsinized, and cell viability was determined by trypan blue dye exclusion. The number of viable cells were counted and normalized to control group (i.e., % control=number of viable cells (treated group)/number of viable cells (control group)×100).

TAMH.neo cells (control) = experiment: Cell viability by trypan blue dye exclusion; details: Mus musculus, 48 h, read-out: cells remained viable
From the text: as §1
as §2, with “The transplanted cells were treated with the following apoptotic agents: 5 μM doxorubicin for 48 hours; 5 μM cisplatin for 48 hours; or with 200 U/ml tumor necrosis factor (TNF) plus 1 μg/ml actinomycin D for 18 hours.” left out
as §3

Bcl-xL(ΔC) WT = target: T1, Bcl-xL(ΔC) WT (Homo sapiens, UniProt Q07817); experiment: Pore-forming activity, calcein release from liposomes; assay type: biochemical
T1 construct: inferred from Ni-NTA purification and the pET22b(+) NdeI/XhoI cloning); made in house; host or cells: Escherichia coli BL21(DE3) carrying pUB520
T1 sequence (Q07817 1-211 limits assumed, stated change not applied): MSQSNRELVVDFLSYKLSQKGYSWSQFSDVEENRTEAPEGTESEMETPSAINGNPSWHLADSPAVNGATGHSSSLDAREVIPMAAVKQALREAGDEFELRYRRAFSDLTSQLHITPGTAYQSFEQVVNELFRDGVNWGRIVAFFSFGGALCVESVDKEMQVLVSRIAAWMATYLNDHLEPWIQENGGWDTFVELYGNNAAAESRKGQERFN
Procedure: Large unilamellar vesicles composed of 60% dioleoylphophatidylcholine and 40% dioleoylphosphatidylglycerol were prepared by the extrusion method of Mayer et al., supra. Lipid stocks, in chloroform, were mixed and dried under a stream of nitrogen gas. The lipid was resuspended by vortexing for 30 min in a solution of 40 mM calcein (Molecular Probes), 25 mM KCl, and 10 mM KOAc, pH 5.0. After 10 freeze-thaw cycles, the lipid suspension was extruded through two 0.1 μm pore diameter Nucleopore filters. Non-entrapped dye was removed by passage over a Sephadex G10 column (Amersham Biosciences). Lipid concentration was measured using the ammonium ferrothiocyanate method (Stewart, Anal. Biochem. 104:10-14, 1980).
For pore assays, recombinant truncated Bcl-2 family protein or mutant protein (Bcl-xL(ΔC)) (500 nM) was added to large unilamellar vesicles (60 μM lipid concentration) in 100 mM KCl, 10 mM KOAc, pH 5.0, and fluorescence measured (490 nm excitation, 520 nm emission) with a Fluoromax-3 spectrophotometer. Peptides of the BH3 domain were incubated with the BCl-xL(ΔC) 5 min prior to mixing with liposomes. AA1 was added to liposomes 1 min before adding the Bcl-xL(ΔC) protein. Samples for kinetic assays were analyzed in a thermostatted cuvette at 37° C. with constant stirring. Dose responses were measured in black quartz microplates (Hellma) at room temperature. Calcein release was expressed as percentage of maximum release with detergent lysis (0.1% Triton X-100).

Bcl-xL(ΔC) = target: T2, Bcl-xL(ΔC) (Homo sapiens, UniProt Q07817); experiment: Displacement of AA bound to Bcl-xL(ΔC); assay type: binding
T2 construct: made in house; host or cells: Escherichia coli BL21(DE3) carrying pUB520
T2 sequence (Q07817 1-211 limits assumed, stated change not applied): as above
Procedure: The non-peptide BCl-xL inhibitors, BH3I-1 and BH3I-2, interact with Phe-97 and Ala-142 in the BCl-xL hydrophobic pocket by NMR chemical shift perturbation (Degterev et al., Nat. Cell Biol. 3:173-182, 2001; Lugovskoy et al., J. Amer. Chem. Soc. 124:1234-1240, 2002). It was determined that BH3I-1 competes with AA1 for Bcl-xL(ΔC) binding.

[3] = tested on: mitochondria with normal levels of Bcl-xL expression; experiment: JC-1 membrane potential of isolated mitochondria; parameters: species or system murine
Procedure: Isolated mitochondria were loaded with JC-1 prior to treatment, and mitochondrial labeling was determined using FACS. […] Antimycin A-treated mitochondria with high levels of Bcl-xL had lower levels of JC-1 staining than parallel samples treated with CCCP. Uncoupled mitochondria still retain a significant Donnan potential because of trapped anionic species and it is likely that antimycin-induced PT and/or swelling of mitochondria led to a further reduction of this residual potential.
As observed for the parent compound, antimycin A3, mitochondria with normal levels of BCl-xL expression were not affected by the 2-methoxy analog.

[4] = target: T3, recombinant human Bcl-2ΔC22 (Homo sapiens, UniProt P10415); experiment: Antimycin A3 fluorescence binding and competition assay
T3 construct: poly-His (N); made in house
T3 sequence (P10415 1-217 limits assumed, stated change not applied): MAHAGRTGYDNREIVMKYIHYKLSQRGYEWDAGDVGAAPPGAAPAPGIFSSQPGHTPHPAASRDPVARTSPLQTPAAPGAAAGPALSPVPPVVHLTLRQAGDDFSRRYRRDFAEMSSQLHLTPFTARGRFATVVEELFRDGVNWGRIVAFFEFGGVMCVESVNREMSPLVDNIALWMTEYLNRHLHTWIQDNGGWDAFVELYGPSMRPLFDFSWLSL
Procedure: In this assay, 0 to 5 μM antimycin A3 (Sigma Chemical Co., St. Louis, Mo.) was added to a physiological buffer (50 mM Tris-HCl pH 8.0, 0.2 M NaCl, 2 mM EDTA, 0.5% v/v glycerol) containing recombinant Bcl-2 or BCl-xL protein under conditions that permitted antimycin A3 to bind to the BH3-binding domain of Bcl-2 or BCl-xL (22.5° C. on a Hitachi F-2500 fluorescence spectrofluorimeter equipped with a thermostatted cell holder). […] The excitation wavelength was 335 nm, and the maximum emission wavelength for antimycin A3 was 428 nm with a slit width of 10 nm. The samples were mixed in a quartz cuvette and checked for inner filter effect over the concentration range of antimycin A3 used for this study. Blanks containing antimycin A3 at the same concentration as the experimental samples were used as controls in all measurements and necessary background corrections were made.
Recombinant human Bcl-2ΔC22 (a recombinant human Bcl-2 with a delection of 22 amino acid residue membrane anchor sequence from the carboxyl end) and mouse Bcl-xLΔC20 (a recombinant murine BCl-xL with a delection of the 20 amino acid residue membrane anchor sequence from the carboxyl end) fused with poly-His at the N-terminus were chromatographically purified to homogeneity. The concentrations of antimycin A3 and stock solutions of recombinant proteins were quantitated using an extinction coefficient of 7.24/mM/cm at 320 nm and by Bradford assay, respectively. The stoichiometric ratio of antimycin A3 and Bcl-2 producing the maximal change in antimycin A3 fluorescence was determined with incremental addition of antimycin A3 to a 1.98 μM solution of recombinant Bcl-2 in a volume of 2.1 milliliters. […] For peptide displacement experiments, a solution of 2 μM antimycin A3 and 3 μM Bcl-2 was allowed to reach binding equilibrium at 4° C. prior to fluorescence measurements. Native peptide corresponding to the BH3 domain of Bak (72-[…]87 (SEQ ID NO:1)) or a mutant peptide with a single amino acid change (Leu78Ala-BH3) was added to the solution and the fluorescence measurements were repeated. […]

RPMI-8226 = experiment: Propidium iodide exclusion / flow cytometry cytotoxicity; assay type: cell-based, human; details: oligomycin 2-10 mg/ml, rotenone 0.5-2.5 mg/ml
Procedure: (§4) Cell survival was assayed by exclusion of propidium iodide (PI; 10 μg/ml) by unfixed cells. Annexin V-FITC (Pharmingen) or 3, 3′-dihexyloxacarbocyanine iodide (DiOC6(3); Molecular Probes) staining was analyzed together with PI to discriminate early apoptotic cells. Apoptotic cells were also measured as sub-G1 events among ethanol-fixed cells stained with 10 μg/ml PI. All cell samples were analyzed using a benchtop FACSCalibur™ (Becton Dickinson, San Jose, Calif.). Flow data were analyzed using MultiCycle AV software (Phoenix Flow Systems). For intracellular pH measurements, cell pellets were washed once and resuspended in 2 ml of HEPES-buffered medium (no phenol red and no serum). Carboxy-SNARF-1-AM (Molecular Probes, 1 mM stock in DMSO, stored at −20° C.) was added to a final concentration of 10 μM, and the cells were incubated for 30 min at 37° C. Following incubation with SNARF, cells were sedimented and the pellets were held on ice. Immediately before analysis, pellets were resuspended in […] (HBSS; experimental buffer) or high-[K+] buffer containing nigericin (calibration samples).

NCI-H929 = experiment: as above; assay type: cell-based, human; details: oligomycin 2-10 mg/ml, rotenone 0.5-2.5 mg/ml
Procedure: as §4

U266 = experiment: as above; assay type: cell-based, human; details: oligomycin 2-10 mg/ml, rotenone 0.5-2.5 mg/ml
Procedure: as §4

[5] = tested on: TAMH cells over-expressing Bcl-xL F97W; experiment: Cytotoxicity (Alamar Blue) in Bcl-xL transfectants; assay type: cell-based, murine; details: 24 h
Procedure: (§5) TAMH cells were transfected with DNA encoding each of the mutant BCl-xL proteins by lipofection (See Example 1 for method). For analysis of BCl-xL expression, 20 μg of cell protein was separated by 20% SDS-PAGE and transferred to nitrocellulose membranes. Immunodetection of BCl-xL was carried out using rabbit anti-Bcl-xL antibody and Protein A/horseradish peroxidase conjugate, followed by chemiluminescent detection. Cells were grown to about 80% confluence in 96-well plates followed by addition of 100 μl of 2X AA1 or staurosporine (STS) solution in complete medium. STS is a natural product originally isolated from the bacterium Streptomyces and found to be capable of inducing apoptosis in certain cells and which induction of apoptosis could be blocked by the expression of a Bcl-2 family protein. Cell viability was determined spectrophotometrically after 24 h treatment as the ratio of reduced and oxidized Alamar Blue (BIOSOURCE) at 570 nm and 600 nm, respectively. All results were normalized against DMSO controls. LD50 values were calculated by non-linear regression analysis using Prism software (Graphpad).

[6] = tested on: TAMH cells over-expressing Bcl-xL WT; experiment: Cytotoxicity (Alamar Blue) in Bcl-xL transfectants; assay type: cell-based, murine; details: 24 h
Procedure: as §5

[7] = tested on: TAMH cells over-expressing Bcl-xL A142L; experiment: Cytotoxicity (Alamar Blue) in Bcl-xL transfectants; assay type: cell-based, murine; details: 24 h
Procedure: as §5

[8] = tested on: TAMH cells over-expressing Bcl-xL E92L; experiment: Cytotoxicity (Alamar Blue) in Bcl-xL transfectants; assay type: cell-based, murine; details: 24 h
Procedure: as §5

[9] = tested on: TAMH cells over-expressing Bcl-xL F146L; experiment: Cytotoxicity (Alamar Blue) in Bcl-xL transfectants; assay type: cell-based, murine; details: 24 h
Procedure: as §5

[10] = tested on: TAMH vector-only control cells; experiment: Cytotoxicity (Alamar Blue); assay type: cell-based, murine; details: 24 h
Procedure: as §5

SMILES: COc1cccc2c1C(=O)c1c(O)c3c(c(O)c1C2=O)C[C@@](O)(C(=O)CO)C[C@@H]3O[C@H]1C[C@H](N)[C@H](O)[C@H](C)O1 [doxorubicin]
- viability at 5 µM ([1]; Mus musculus, 48 h, read-out: cells remained viable): 88%
- viability at 5 µM [2]: 20%
- viability at 5 µM (TAMH.neo cells (control)): 50%

SMILES: CC(C)C(C(=O)O)N1C(=O)/C(=C\c2ccc(Br)cc2)SC1=S (stereo not shown) [BH3I-1]
- effect on Bcl-xL pore-forming activity (Bcl-xL(ΔC) WT): no effect
- Ki (Bcl-xL(ΔC)): 1870 ± 617 nM

SMILES: CCCC[C@H]1C(=O)O[C@H](C)[C@H](NC(=O)c2cccc(NC=O)c2O)C(=O)O[C@@H](C)[C@@H]1OC(=O)CC(C)C [antimycin A3, reference compound]
- mitochondrial depolarization (JC-1) [3]: not affected
- increase of intrinsic fluorescence at 428 nm in the presence of Bcl-2 [4]: ≤ 18%

SMILES: C=C(C)[C@H]1Cc2c(ccc3c2O[C@@H]2COc4cc(OC)c(OC)cc4[C@@H]2C3=O)O1 [rotenone]
- difference in sensitivity of the two cell lines [1]: no significant differences
- time until cell death apparent ([1]; after treatment, TABX2S and TABX1A cells): six to eight
- cell killing by oxidative phosphorylation inhibitors (RPMI-8226): none of the myeloma cell lines were killed
- cell killing by oxidative phosphorylation inhibitors (NCI-H929): none of the myeloma cell lines were killed
- cell killing by oxidative phosphorylation inhibitors (U266): none of the myeloma cell lines were killed

SMILES: CN[C@@H]1C[C@H]2O[C@@](C)([C@@H]1OC)n1c3ccccc3c3c4c(c5c6ccccc6n2c5c31)C(=O)NC4 [STS, staurosporine]
- Cytotoxicity LD50 [5]: 0.34 ± 0.10 µM
- Cytotoxicity LD50 [6]: 0.58 ± 0.1 µM and 0.58 ± 0.14 µM
- Cytotoxicity LD50 [7]: 0.49 ± 0.11 µM
- Cytotoxicity LD50 [8]: 0.52 ± 0.12 µM
- Cytotoxicity LD50 [9]: 0.38 ± 0.04 µM
- Cytotoxicity LD50 [10]: 0.11 ± 0.01 µM

SMILES: CC[C@H]1/C=C/C=C/C[C@@H](C)[C@H](O)[C@@](C)(O)C(=O)[C@@H](C)[C@H](O)[C@@H](C)C(=O)[C@@H](C)[C@H](O)[C@@H](C)/C=C/C(=O)O[C@@H]2[C@H](C)[C@H](CC1)O[C@]1(CC[C@H](C)[C@H](C[C@@H](C)O)O1)[C@H]2C [oligomycin]
- difference in sensitivity of the two cell lines [1]: no significant differences
- cell killing by oxidative phosphorylation inhibitors (RPMI-8226): Only NCI-H929 cells were killed
- cell killing by oxidative phosphorylation inhibitors (NCI-H929): killed
- cell killing by oxidative phosphorylation inhibitors (U266): Only NCI-H929 cells were killed
